# Test results: the Bradley open melting point set (2014)
# Where “and” joins values, the source holds several entries; their conditions need not be identical. Equal values may be shown once.
row,Structure (SMILES),melting point
1,N#CCc1ccccc1Br [o-bromophenylacetonitrile],-1 °C
2,Cc1ccccc1O [o-cresol],31 °C and 32 °C
3,N#CCc1ccccc1C#N [o-cyano_phenylacetonitrile],80 °C
4,N#Cc1ccccc1C=O [o-cyanobenzaldehyde],108 °C
5,COc1ccccc1OC [o-dimethoxybenzene],15 °C
6,Nc1ccccc1I [o-iodoaniline],58 °C
7,Oc1ccccc1I [o-iodophenol],42 °C
8,NC(=O)c1ccccc1-c1ccccc1 [o-phenylbenzamide],177 °C
9,Oc1ccccc1-c1ccccc1 [o-phenylphenol],60 °C
10,Cc1ccccc1C#N [o-tolunitrile],13 °C
11,C[Si]1(C)O[Si](C)(C)O[Si](C)(C)O[Si](C)(C)O1 [octamethylcyclotetrasiloxane],18 °C
12,"N#Cc1ccc(-c2ccc(C#N)cc2)cc1 [p,p'-dicyanobiphenyl]",237 °C
13,O=C1C=CC(=O)C=C1 [p-benzoquinone],114 °C
14,CC(=O)c1ccc(Br)cc1 [p-bromoacetophenone],51 °C
15,Nc1ccc(Br)cc1 [p-bromoaniline],63 °C
16,N#CCc1ccc(Br)cc1 [p-bromophenylacetonitrile],48 °C
17,Oc1ccc(Cl)cc1 [p-chlorophenol],44 °C
18,N#CCc1ccc(C#N)cc1 [p-cyano_phenylacetonitrile],100 °C
19,N#CCc1ccc(C(=O)O)cc1 [p-cyanomethyl_benzoic_acid],192 °C
20,C=Cc1ccc(C#N)cc1 [p-cyanostyrene],-15 °C

row,Structure (SMILES),melting point
1,Brc1ccc(Br)cc1 [p-dibromobenzene],88 °C
2,CCOc1ccc(OCC)cc1 [p-diethoxybenzene],72 °C
3,COc1ccc(OC)cc1 [p-dimethoxybenzene],60 °C
4,NC(=O)c1ccc(C=O)cc1 [p-formyl_benzamide],75 °C
5,Nc1ccc([N+](=O)[O-])cc1 [p-nitroaniline],150 °C
6,N#Cc1ccc([N+](=O)[O-])cc1 [p-nitrobenzonitrile],149 °C
7,O=Cc1ccc(-c2ccccc2)cc1 [p-phenylbenzaldehyde],60 °C
8,Nc1ccc(N)cc1 [p-phenylenediamine],140 °C
9,Cc1ccc(N)cc1 [p-toluidine],44 °C
10,CCCCCCCCCCCCCCC(=O)O [pentadecanoic acid],53 °C
11,O=Cc1c(F)c(F)c(F)c(F)c1F [pentafluorobenzaldehyde],26 °C
12,CCCC(C)C1(CC)C(=O)NC(=O)NC1=O (stereo not given) [pentobarbital],130 °C
13,OCCN1CCN(CCCN2c3ccccc3Sc3ccc(Cl)cc32)CC1 [perphenazine],94 °C
14,C=CCC1(c2ccccc2)C(=O)NC(=O)NC1=O [phenallymal],156 °C
15,CCC1(c2ccccc2)C(O)=NC(=O)N=C1O [phenobarbital],176 °C
16,NC(=O)Oc1ccccc1 [phenyl carbamate],151 °C
17,O=C=Nc1ccccc1 [phenyl isocyanate],-33 °C
18,O=C(Oc1ccccc1)c1ccccc1O [phenyl salicylate] [listing 2 of 2 here],43 °C
19,O=C(O)Cc1ccccc1 [phenylacetic acid],77.5 °C and 76.7 °C and 77 °C
20,O=C(O)Cc1ccccc1 [phenylacetic_acid],79 °C

# Next, values leading:
row,melting point,Structure (SMILES)
1,92 °C,OCc1ccccc1I [o-iodobenzyl_alcohol]
2,30 °C,CC(=O)c1ccccc1[N+](=O)[O-] [o-nitroacetophenone]
3,148 °C,O=C(O)c1ccccc1[N+](=O)[O-] [o-nitrobenzoic_acid]
4,84 °C,N#CCc1ccccc1[N+](=O)[O-] [o-nitrophenylacetonitrile]
5,116 °C,O=C(O)Cc1ccccc1-c1ccccc1 [o-phenyl_phenylacetic_acid]
6,152 °C,C=Cc1ccccc1C(N)=O [o-vinylbenzamide]
7,-57 °C and -56.8 °C,CCCCCCCC [octane]
8,16.3 °C and 17 °C,CCCCCCCC(=O)O [octanoic acid]
9,231 °C,Cc1nccn1CC1CCc2c(c3ccccc3n2C)C1=O (stereo not given) [ondansetron]
10,112 °C,O(c1ccccc1OC\C=C)CC(O)CNC(C)C (stereo not given) [oxprenolol]
11,175 °C,"O=C(c1ccc(Br)cc1)c1ccc(Br)cc1 [p,p'-dibromobenzophenone]"
12,34 °C,Cc1ccc(O)cc1 [p-Cresol]
13,75 °C,Nc1ccc(CO)cc1 [p-amino_benzyl_alcohol]
14,150 °C,Nc1ccc(C(=O)O)c(O)c1 [p-aminosalicylic acid]
15,184 °C,COc1ccc(C(=O)O)cc1 [p-anisic_acid]
16,82 °C,O=C(c1ccccc1)c1ccc(Br)cc1 [p-bromobenzophenone]
17,46 °C,O=Cc1ccc(Cl)cc1 [p-chlorobenzaldehyde]
18,33 °C,Cc1ccc(O)cc1 [p-cresol]
19,39 °C,CCOc1ccc(C(C)=O)cc1 [p-ethoxyacetophenone]
20,135 °C,NC(=O)c1ccc(CO)cc1 [p-hydroxymethyl_benzamide]
21,63 °C,Nc1ccc(I)cc1 [p-iodoaniline]
22,273 °C,O=C(O)c1ccc(I)cc1 [p-iodobenzoic_acid]
23,43 °C,Cc1ccc(I)cc1 [p-iodotoluene]

row,melting point,Structure (SMILES)
1,78 °C,CC(=O)Oc1ccc([N+](=O)[O-])cc1 [p-nitrophenyl_acetate]
2,29 °C,C=Cc1ccc([N+](=O)[O-])cc1 [p-nitrostyrene]
3,105 °C,OCc1ccc(-c2ccccc2)cc1 [p-phenylbenzyl alcohol]
4,-6 °C,Cc1ccc(C=O)cc1 [p-tolualdehyde]
5,163 °C,Cc1ccc(C(N)=O)cc1 [p-toluamide]
6,69 °C,Cc1ccc(S(=O)(=O)Cl)cc1 [p-toluenesulfonyl_chloride]
7,180 °C,Cc1ccc(C(=O)O)cc1 [p-toluic acid]
8,86 °C,Clc1cc(Cl)c(Cl)c(Cl)c1Cl [pentachlorobenzene]
9,-130 °C,CCCCC [pentane]
10,-69 °C,CCCCCOCCCCC [pentyl_ether]
11,53 °C,CN1CCN(CCCN2c3ccccc3Sc3ccccc32)CC1 [perazine]
12,277 °C and 278 °C (2×),c1cc2cccc3c4cccc5cccc(c(c1)c23)c54 [perylene]
13,134 °C,CCOc1ccc(NC(C)=O)cc1 [phenacetin] [listing 1 of 2 here]
14,138 °C and 135 °C (2×),CCOc1ccc(NC(C)=O)cc1 [phenacetin] [listing 2 of 2 here]
15,176 °C,c1ccc2nc3ccccc3nc2c1 [phenazine]
16,41 °C,Oc1ccccc1 [phenol] [listing 1 of 2 here]
17,41 °C (3×) and 42 °C,Oc1ccccc1 [phenol] [listing 2 of 2 here]
18,233 °C,O=C1NN(c2ccccc2)C(=O)C1c1ccccc1 (stereo not given) [phenopyrazone]
19,69 °C,O=C(Oc1ccccc1)c1ccccc1 [phenyl benzoate]
20,42.2 °C,O=C(Oc1ccccc1)c1ccccc1O [phenyl salicylate] [listing 1 of 2 here]
21,28 °C,c1ccc(Oc2ccccc2)cc1 [phenyl_ether]
22,186 °C,NC(Cc1ccccc1)C(=O)O (stereo not given) [phenylalanine]
